# Data reported in patent US20230322767A1, “ARYL SUBSTITUTED PYRROLO-PYRIDINONES AND THERAPEUTIC USES THEREOF” (Bayer Aktiengesellschaft, priority 2020, published 2023).
# Target: CSNK1A1 (Homo sapiens (Human), UniProt P48729)
# Assay: CSNK1A1 Assay 2 (ADP-Glo, 1 μM ATP)
# Assay type: biochemical
# Settings: median, read-out: CSNK1A1 Assay 2 IC50 [mol/l] (median)
# Procedure: CSNK1A1-inhibitory activity of compounds of the present invention in presence of 1 μM adenosine-tri-phosphate (ATP) was quantified employing the CSNK1A1 assay as described in the following paragraphs. In essence, the enzyme activity is measured by quantification of the adenosine-di-phosphate (ADP), which is generated as a co-product of the enzyme reaction, via the “ADP-Glo™ Kinase Assay” kit from the company Promega. This detection system works as follows: In a first step the ATP not consumed in the kinase reaction is quantitatively converted to cAMP employing an adenylate cyclase (“ADP-Glo-reagent”), then the adenylate cyclase is stopped and the ADP generated in the kinase reaction converted to ATP which generates in a luciferase-based reaction a glow-luminescence signal (“Kinase Detection Reagent”).
# As substrate for the kinase reaction the biotinylated peptide biotin-Ahx-KRRRAL-pS-VASLPGL (C-terminus in amide form) was used which can be purchased e.g. from the company Biosyntan (Berlin-Buch, Germany).
# For the assay 50 nl of a 100 fold concentrated solution of the test compound in DMSO was pipetted into a white 1536-well microtiter plate (Greiner Bio-One, Frickenhausen, Germany), 2 μL of a solution of CSNK1A1 in aqueous assay buffer [50 mM HEPES pH 7.5, 10% (v/v) glycerol, 10 mM MgCl2, 50 mM NaCl, 1 mM dithiothreitol, 0.01% (w/v) bovine serum albumin, 0.01% (v/v) Triton X-100] were added and the mixture was incubated for 15 min at 22° C. to allow pre-binding of the test compounds to the enzyme before the start of the kinase reaction. […] The concentration of CSNK1A1 was adjusted depending of the activity of the enzyme lot and was chosen appropriate to have the assay in the linear range, a typical concentrations are about 0.0375 ng/μL. The reaction was stopped by the addition of 2.5 μL of “ADP-Glo-reagent” (1:1.5 fold diluted with water) and the resulting mixture was incubated at 22° C. for 1 h to convert the ATP not consumed in the kinase reaction completely […]. Subsequently 2.5 μL of the “kinase detection reagent” (1.2 fold more concentrated than recommended by the producer) were added, the resulting mixture was incubated at 22° C. for 1 h and then the luminescence measured with a suitable measurement instrument (e.g. Viewlux™ from Perkin-Elmer). The amount of emitted light was taken as a measure for the amount of ADP generated and thereby for the activity of the CSNK1A1.
# Sequence of CSNK1A1 (P48729 whole entry): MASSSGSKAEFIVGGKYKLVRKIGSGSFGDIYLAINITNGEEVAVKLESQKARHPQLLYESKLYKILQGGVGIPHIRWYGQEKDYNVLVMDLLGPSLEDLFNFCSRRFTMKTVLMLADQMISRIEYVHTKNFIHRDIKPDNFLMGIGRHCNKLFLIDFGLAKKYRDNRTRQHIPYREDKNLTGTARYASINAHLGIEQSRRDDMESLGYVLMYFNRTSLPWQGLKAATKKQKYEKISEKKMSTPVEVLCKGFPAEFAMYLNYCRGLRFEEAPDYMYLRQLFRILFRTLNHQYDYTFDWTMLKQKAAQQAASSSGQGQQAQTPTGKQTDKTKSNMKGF
row,Structure (SMILES),IC50 [µM]
1,"O=C(Nc1cc(-c2[nH]c3cc[nH]c(=O)c3c2-c2ccccc2)ccn1)C(CC(F)F)c1ccc(F)cc1 (racemic) [Example 76, 4,4-difluoro-2-(4-fluorophenyl)-N-[4-(4-oxo-3-phenyl-4,5-dihydro-1H-pyrrolo[3,2-c]pyridin-2-yl)pyridin-2-yl]butanamide]",0.002

# Target: wild-type Epidermal Growth Factor Receptor (EGFR) (Homo sapiens (Human), UniProt P00533)
# Assay: WT-EGFR Kinase Assay (TR-FRET, 2 mM ATP)
# Assay type: biochemical
# Settings: EGFR Wildtyp 2 mM ATP IC50 [mol/l] (median), median or individual measurements
# Summary of the method: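 GST-tagged human EGFR (R669–A1210, Sf9-expressed) preincubated 15 min at 22° C with compound in pH 7.0 Hepes/MgCl2 buffer, then reacted at 2 mM ATP with a biotinylated peptide substrate. Phosphorylation detected by TR-FRET (streptavidin-XL665, Tb-cryptate anti-phosphotyrosine) as the 665/620 nm emission ratio.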
# Sequence of wild-type Epidermal Growth Factor Receptor (EGFR) (P00533 669-1210): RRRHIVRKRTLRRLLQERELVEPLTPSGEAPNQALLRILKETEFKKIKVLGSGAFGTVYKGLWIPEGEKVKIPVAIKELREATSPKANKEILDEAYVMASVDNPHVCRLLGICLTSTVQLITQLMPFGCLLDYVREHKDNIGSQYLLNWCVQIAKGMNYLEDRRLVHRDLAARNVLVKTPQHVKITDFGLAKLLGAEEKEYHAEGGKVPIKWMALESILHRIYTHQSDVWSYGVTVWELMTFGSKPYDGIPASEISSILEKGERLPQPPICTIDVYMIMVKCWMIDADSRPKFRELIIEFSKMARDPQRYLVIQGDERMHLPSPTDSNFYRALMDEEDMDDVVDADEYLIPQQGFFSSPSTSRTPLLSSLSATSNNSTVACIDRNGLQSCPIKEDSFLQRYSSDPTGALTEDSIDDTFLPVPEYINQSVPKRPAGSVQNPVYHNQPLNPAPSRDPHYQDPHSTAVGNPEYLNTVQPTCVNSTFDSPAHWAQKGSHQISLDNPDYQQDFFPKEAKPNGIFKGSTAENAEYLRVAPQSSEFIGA
row,Structure (SMILES),IC50 [µM]
1,"Cn1cc(CC(F)(F)F)c2[nH]c(-c3ccnc(NC(=O)C(CC(F)F)c4ccc(F)cc4)c3)c(-c3ccc(F)cc3)c2c1=O (single isomer, unassigned) [Example 027, 4,4-difluoro-2-(4-fluorophenyl)-N-{4-[3-(4-fluorophenyl)-5-methyl-4-oxo-7-(2,2,2-trifluoroethyl)-4,5-dihydro-1H-pyrrolo[3,2-c]pyridin-2-yl]pyridin-2-yl}butanamide]",> 20
2,"Cn1cc(CC(F)(F)F)c2[nH]c(-c3ccnc(NC(=O)C(CC(F)F)c4ccc(F)cc4)c3)c(-c3ccc(F)cc3)c2c1=O (single isomer, unassigned) [Example 028, 4,4-difluoro-2-(4-fluorophenyl)-N-{4-[3-(4-fluorophenyl)-5-methyl-4-oxo-7-(2,2,2-trifluoroethyl)-4,5-dihydro-1H-pyrrolo[3,2-c]pyridin-2-yl]pyridin-2-yl}butanamide]",> 5.71
3,"CN1C(=O)c2c([nH]c(-c3ccnc(NC(=O)C(CC(F)F)c4ccc(F)cc4)c3)c2-c2ccccc2)CC12CCC2 (single isomer, unassigned; (+)) [Example 051, (+)-4,4-difluoro-2-(4-fluorophenyl)-N-[4-(5′-methyl-4′-oxo-3′-phenyl-1′,4′,5′,7′-tetrahydrospiro-[cyclobutane-1,6′-pyrrolo[3,2-c]pyridin]-2′-yl)pyridin-2-yl]butanamide]",3.2
4,"CC1(C)CNC(=O)c2c1[nH]c(-c1ccnc(NC(=O)C(CC(F)F)c3ccc(F)cc3)c1)c2-c1ccccc1 (single isomer, unassigned) [Example 044, N-[4-(7,7-dimethyl-4-oxo-3-phenyl-4,5,6,7-tetrahydro-1H-pyrrolo[3,2-c]pyridin-2-yl)pyridin-2-yl]-4,4-difluoro-2-(4-fluorophenyl)butanamide]",> 20
5,"CC(C(=O)Nc1cc(-c2[nH]c3c(CC(F)(F)F)cn(C)c(=O)c3c2-c2ccc(F)cc2)ccn1)c1ccc(F)cc1 (racemic) [Example 022, 2-(4-fluorophenyl)-N-{4-[3-(4-fluorophenyl)-5-methyl-4-oxo-7-(2,2,2-trifluoroethyl)-4,5-dihydro-1H-pyrrolo[3,2-c]pyridin-2-yl]pyridin-2-yl}propanamide]",> 20
6,"O=C(Nc1cc(-c2[nH]c3cc[nH]c(=O)c3c2-c2ccccc2)ccn1)C(CC(F)F)c1ccc(F)cc1 (racemic) [Example 76, 4,4-difluoro-2-(4-fluorophenyl)-N-[4-(4-oxo-3-phenyl-4,5-dihydro-1H-pyrrolo[3,2-c]pyridin-2-yl)pyridin-2-yl]butanamide]",> 20
7,"CN1C(=O)c2c([nH]c(-c3ccnc(NC(=O)C(CC(F)F)c4ccc(F)cc4)c3)c2-c2ccccc2)CC12CCC2 (single isomer, unassigned; (-)) [Example 050, (-)-4,4-difluoro-2-(4-fluorophenyl)-N-[4-(5′-methyl-4′-oxo-3′-phenyl-1′,4′,5′,7′-tetrahydrospiro-[cyclobutane-1,6′-pyrrolo[3,2-c]pyridin]-2′-yl)pyridin-2-yl]butanamide]",11.9
8,"Cn1cc(CC2CC2)c2[nH]c(-c3ccnc(NC(=O)C(CC(F)F)c4ccc(F)cc4)c3)c(-c3ccccc3)c2c1=O (racemic) [Example 060, N-{4-[7-(cyclopropylmethyl)-5-methyl-4-oxo-3-phenyl-4,5-dihydro-1H-pyrrolo[3,2-c]pyridin-2-yl]pyridin-2-yl}-4,4-difluoro-2-(4-fluorophenyl)butanamide]",> 20

# Same assay, conditions: read-out: EGFR Wildtyp 2 mM ATP IC50 [mol/l] (median), median or individual measurements
row,Structure (SMILES),IC50 [µM]
1,"CC1(C)CNC(=O)c2c1[nH]c(-c1ccnc(NC(=O)Cc3ccc(F)cc3)c1)c2-c1ccccc1 [Example 042, N-[4-(7,7-dimethyl-4-oxo-3-phenyl-4,5,6,7-tetrahydro-1H-pyrrolo[3,2-c]pyridin-2-yl)pyridin-2-yl]-2-(4-fluorophenyl)acetamide]",5.6
2,"Cc1cn(C)c(=O)c2c(-c3ccc(F)cc3)c(-c3ccnc(NC(=O)C(CC(F)F)c4ccc(F)cc4)c3)[nH]c12 (single isomer, unassigned; (+)) [Example 036, (+)-4,4-difluoro-2-(4-fluorophenyl)-N-{4-[3-(4-fluorophenyl)-5,7-dimethyl-4-oxo-4,5-dihydro-1H-pyrrolo[3,2-c]pyridin-2-yl]pyridin-2-yl}butanamide]",> 20
3,"Cc1cn(C)c(=O)c2c(-c3ccc(F)cc3)c(-c3ccnc(NC(=O)C(C)c4ccc(F)cc4)c3)[nH]c12 (single isomer, unassigned; (+)) [Example 032, (+)-2-(4-fluorophenyl)-N-{4-[3-(4-fluorophenyl)-5,7-dimethyl-4-oxo-4,5-dihydro-1H-pyrrolo[3,2-c]pyridin-2-yl]pyridin-2-yl}propanamide]",> 20
4,CN1CC(CC(F)(F)F)c2[nH]c(-c3ccnc(NC(=O)C(CC(F)F)c4ccc(F)cc4)c3)c(-c3ccccc3)c2C1=O (stereo not drawn) [Example 017],> 20
5,CC1c2[nH]c(-c3ccnc(NC(=O)C(CC(F)F)c4ccc(F)cc4)c3)c(-c3ccccc3)c2C(=O)N(C)C1C (stereo not drawn) [Example 041],> 20
6,"Cn1cc(CC(F)(F)F)c2[nH]c(-c3ccnc(NC(=O)C(CC(F)F)c4ccc(F)cc4)c3)c(-c3ccccc3)c2c1=O (single isomer, unassigned; (+)) [Example 020, (+)-4,4-difluoro-2-(4-fluorophenyl)-N-{4-[5-methyl-4-oxo-3-phenyl-7-(2,2,2-trifluoroethyl)-4,5-dihydro-1H-pyrrolo[3,2-c]pyridin-2-yl]pyridin-2-yl}butanamide]",> 20
7,CN1CC(CC(F)(F)F)c2[nH]c(-c3ccnc(NC(=O)C(CC(F)F)c4ccc(F)cc4)c3)c(-c3ccc(F)cc3)c2C1=O (stereo not drawn) [Example 025],> 20
8,"CN1CCc2[nH]c(-c3ccnc(NC(=O)C(CC(F)F)c4ccc(F)cc4)c3)c(-c3cccnc3)c2C1=O (single isomer, unassigned) [Example 011, 4,4-difluoro-2-(4-fluorophenyl)-N-{4-[5-methyl-4-oxo-3-(pyridin-3-yl)-4,5,6,7-tetrahydro-1H-pyrrolo[3,2-c]pyridin-2-yl]pyridin-2-yl}butanamide]",> 20
9,"CC(C(=O)Nc1cc(-c2[nH]c3c(c2-c2ccccc2)C(=O)N(C)C2(CCC2)C3)ccn1)c1ccc(F)cc1 (single isomer, unassigned; (+)) [Example 054, (+)-2-(4-fluorophenyl)-N-[4-(5′-methyl-4′-oxo-3′-phenyl-1′,4′,5′,7′-tetrahydrospiro[cyclobutane-1,6′-pyrrolo[3,2-c]pyridin]-2′-yl)pyridin-2-yl]propanamide]",> 20
